Measurements as given in publication PMC6099883 (Proceedings of the National Academy of Sciences of the …, 2018).

Biological target: T1, OsGID1 with SLR1 (Oryza sativa, UniProt Q6L545)
T1 sequence (Q6L545 1-354): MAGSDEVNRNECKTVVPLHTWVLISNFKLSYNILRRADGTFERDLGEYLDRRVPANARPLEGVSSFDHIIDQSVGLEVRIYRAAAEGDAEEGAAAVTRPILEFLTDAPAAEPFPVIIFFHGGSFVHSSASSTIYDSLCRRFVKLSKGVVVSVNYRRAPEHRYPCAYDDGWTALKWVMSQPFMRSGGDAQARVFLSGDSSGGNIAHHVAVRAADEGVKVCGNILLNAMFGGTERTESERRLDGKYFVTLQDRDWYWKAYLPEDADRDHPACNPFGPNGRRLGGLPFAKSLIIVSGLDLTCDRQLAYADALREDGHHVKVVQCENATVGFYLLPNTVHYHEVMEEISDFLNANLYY
T1 sequence (Q7G7J6 1-625 partner): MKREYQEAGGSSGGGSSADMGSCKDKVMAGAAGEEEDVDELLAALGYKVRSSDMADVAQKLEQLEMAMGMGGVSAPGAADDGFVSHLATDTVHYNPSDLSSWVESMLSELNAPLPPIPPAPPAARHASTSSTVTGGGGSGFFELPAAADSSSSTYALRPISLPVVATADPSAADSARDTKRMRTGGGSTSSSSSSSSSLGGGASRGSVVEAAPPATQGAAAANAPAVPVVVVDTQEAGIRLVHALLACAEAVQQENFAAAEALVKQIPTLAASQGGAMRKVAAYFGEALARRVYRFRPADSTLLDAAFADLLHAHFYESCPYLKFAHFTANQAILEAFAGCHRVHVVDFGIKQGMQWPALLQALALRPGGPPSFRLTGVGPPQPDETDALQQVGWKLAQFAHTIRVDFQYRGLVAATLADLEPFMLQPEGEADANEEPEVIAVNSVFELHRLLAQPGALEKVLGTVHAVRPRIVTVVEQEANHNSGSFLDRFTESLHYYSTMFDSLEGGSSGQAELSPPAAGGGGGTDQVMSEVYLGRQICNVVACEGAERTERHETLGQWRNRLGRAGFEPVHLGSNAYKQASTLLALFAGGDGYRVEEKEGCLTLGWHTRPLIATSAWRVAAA
Assay: SPR
Assay type: binding

Kd [nM] | SMILES
305 | C=C1C[C@]23C[C@@]1(O)CC[C@H]2[C@@]12CC[C@H](O)[C@@](C)(C(=O)O1)[C@H]2[C@@H]3C(=O)O [GA1]
296 | C=C1C[C@]23C[C@@]1(O)CC[C@H]2[C@@]12C=C[C@H](O)[C@@](C)(C(=O)O1)[C@H]2[C@@H]3C(=O)O [GA3]
